Series [1] deals with A2780 subcutaneous ovarian cancer. In words: Antitumor effect, A2780 subcutaneous ovarian cancer. The settings on record: at 10th day.
For another series, the system named is A2780 cells. In words: Toxicity of drug-loaded vesicles to A2780 by MTT. The settings on record: Homo sapiens; A2780, CPT.HCl, 4 h co-cultivation + 44 h; transferrin-CLPs with 30% transferrin. The series is classed as cell-based.
A further series can be described thus: in vivo. Conditions: Balb/C nude, mouse, 10 mg/kg.

Each structure is given as a SMILES string. Counter-ions that a name gives are not always drawn.

Usually IC50 stands for the point on the concentration scale where inhibition reaches its midpoint. For `CCc1c2c(nc3ccc(OC(=O)N4CCC(N5CCCCC5)CC4)cc13)-c1cc3c(c(=O)n1C2)COC(=O)[C@]3(O)CC` [CPT.HCl, irinotecan hydrochloride], the body weight decrease in series [1] was found to be 18%. In the series with A2780 cells, the IC50 was determined as 4.11 µg/mL.
As a reminder, the half-life is how long it takes for the measured level to halve. Molecule `COc1cccc2c1C(=O)c1c(O)c3c(c(O)c1C2=O)C[C@@](O)(C(=O)CO)C[C@@H]3O[C@H]1C[C@H](N)[C@H](O)[C@H](C)O1` [DOX.HCl, doxorubicin hydrochloride] showed a half-life in the series “in vivo” of 16.2 min.

Values taken from patent US20180360766A1, “OVARIAN CANCER SPECIFICALLY TARGETED BIODEGRADABLE AMPHIPHILIC POLYMER, POLYMER VESICLE PREPARED THEREBY AND USE THEREOF” (BRIGHTGENE BIO-MEDICAL TECHNOLOGY CO., LTD., priority 2016, published 2018).
